Biological target: human full-length MKNK1 (Homo sapiens (Human), UniProt Q9BUB5, T344D)
Assay: MKNK1 kinase high ATP assay (TR-FRET)
Assay type: biochemical
Conditions: high ATP (2 mM), 15 min preincubation with enzyme; read-out: MKNK1 IC50
In short: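 GST-tagged full-length MKNK1 (aa 1–424, T344D; insect-cell expressed) preincubated 15 min with compound, then reacted 30 min at 22 °C with 2 mM ATP and 0.06 μM biotinylated peptide (final) in HEPES pH 7.5 buffer. Phosphopeptide detected by TR-FRET 665/620 ratio, normalized to no-inhibitor and no-enzyme controls.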

Chain of human full-length MKNK1 (Q9BUB5 other isoform, or with tags, fused parts or gaps T344D): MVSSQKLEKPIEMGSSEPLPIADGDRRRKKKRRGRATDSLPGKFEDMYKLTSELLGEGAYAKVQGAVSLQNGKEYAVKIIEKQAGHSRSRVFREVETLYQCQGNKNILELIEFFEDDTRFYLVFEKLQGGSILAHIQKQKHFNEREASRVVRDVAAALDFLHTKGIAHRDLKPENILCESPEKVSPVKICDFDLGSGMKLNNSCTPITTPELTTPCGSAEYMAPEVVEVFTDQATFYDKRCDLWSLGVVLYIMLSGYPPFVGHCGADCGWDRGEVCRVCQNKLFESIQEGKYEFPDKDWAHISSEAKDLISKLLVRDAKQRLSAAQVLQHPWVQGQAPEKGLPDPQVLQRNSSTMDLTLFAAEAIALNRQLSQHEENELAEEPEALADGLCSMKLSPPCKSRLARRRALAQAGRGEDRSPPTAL

| Compound | IC50 |
| --- | --- |
| COc1cn2nccc2cc1Nc1ncnc2sc3c(c12)CC[C@H](C(=O)NCCC(F)(F)F)C3 [Example 80, (7S)-4-[(6-Methoxypyrazolo[1,5-a]pyridin-5-yl)amino]-N-(3,3,3-trifluoropropyl)-5,6,7,8-tetrahydro[1]benzothieno[2,3-d]pyrimidine-7-carboxamide] | 3 nM |
| COc1cn2nccc2cc1Nc1ncnc2sc3c(c12)CC[C@H](C(=O)NCC(C)(C)O)C3 [Example 81, (7S)—N-(2-Hydroxy-2-methylpropyl)-4-[(6-methoxypyrazolo[1,5-a]pyridin-5-yl)amino]-5,6,7,8-tetrahydro[1]benzothieno[2,3-d]pyrimidine-7-carboxamide] | 2 nM |
| COc1cn2nccc2cc1Nc1ncnc2sc3c(c12)CC[C@H](C(=O)NCCN(C)C)C3 [Example 82, (7S)—N-[2-(Dimethylamino)ethyl]-4-[(6-methoxypyrazolo[1,5-a]pyridin-5-yl)amino]-5,6,7,8-tetrahydro[1]benzothieno[2,3-d]pyrimidine-7-carboxamide] | 3 nM |
| COc1cn2nccc2cc1Nc1ncnc2sc3c(c12)CC[C@H](C(=O)NCCO)C3 [Example 83, (7S)—N-(2-Hydroxyethyl)-4-[(6-methoxypyrazolo[1,5-a]pyridin-5-yl)amino]-5,6,7,8-tetrahydro[1]benzothieno[2,3-d]pyrimidine-7-carboxamide] | 3 nM |
| COCCNC(=O)[C@H]1CCc2c(sc3ncnc(Nc4cc5ccnn5cc4OC)c23)C1 [Example 84, (7S)—N-(2-Methoxyethyl)-4-[(6-methoxypyrazolo[1,5-a]pyridin-5-yl)amino]-5,6,7,8-tetrahydro[1]benzothieno[2,3-d]pyrimidine-7-carboxamide] | 3 nM |
| COc1cn2nccc2cc1Nc1ncnc2sc3c(c12)CC[C@H](C(=O)NC(C)(C)C)C3 [Example 86, (7S)—N-tert-Butyl-4-[(6-methoxypyrazolo[1,5-a]pyridin-5-yl)amino]-5,6,7,8-tetrahydro[1]benzothieno[2,3-d]pyrimidine-7-carboxamide] | 4 nM |
| COc1cn2nccc2cc1Nc1ncnc2sc3c(c12)CC[C@H](C(=O)NC1(C)CCC1)C3 [Example 87, (7S)-4-[(6-Methoxypyrazolo[1,5-a]pyridin-5-yl)amino]-N-(1-methylcyclobutyl)-5,6,7,8-tetrahydro[1]benzothieno[2,3-d]pyrimidine-7-carboxamide] | 4 nM |
| COc1cn2nccc2cc1Nc1ncnc2sc3c(c12)CC[C@H](C(=O)Nc1ccc(F)cc1)C3 [Example 88, (7S)—N-(4-Fluorophenyl)-4-[(6-methoxypyrazolo[1,5-a]pyridin-5-yl)amino]-5,6,7,8-tetrahydro[1]benzothieno[2,3-d]pyrimidine-7-carboxamide] | 8 nM |
| COc1cn2nccc2cc1Nc1ncnc2sc3c(c12)CC[C@H](C(=O)Nc1cccc(Cl)c1)C3 [Example 89, (7S)—N-(3-Chlorophenyl)-4-[(6-methoxypyrazolo[1,5-a]pyridin-5-yl)amino]-5,6,7,8-tetrahydro[1]benzothieno[2,3-d]pyrimidine-7-carboxamide] | 24 nM |
| COc1cn2nccc2cc1Nc1ncnc2sc3c(c12)CC[C@H](C(=O)Nc1ccc(Cl)c(Cl)c1)C3 [Example 90, (7S)—N-(3,4-Dichlorophenyl)-4-[(6-methoxypyrazolo[1,5-a]pyridin-5-yl)amino]-5,6,7,8-tetrahydro[1]benzothieno[2,3-d]pyrimidine-7-carboxamide] | 235 nM |
| COc1cn2nccc2cc1Nc1ncnc2sc3c(c12)CC[C@H](C(=O)Nc1ccc(F)c(Cl)c1)C3 [Example 91, (7S)—N-(3-Chloro-4-fluorophenyl)-4-[(6-methoxypyrazolo[1,5-a]pyridin-5-yl)amino]-5,6,7,8-tetrahydro[1]benzothieno[2,3-d]pyrimidine-7-carboxamide] | 48 nM |
| COc1cn2nccc2cc1Nc1ncnc2sc3c(c12)CC[C@H](C(=O)Nc1cccc(F)c1)C3 [Example 92, (7S)—N-(3-Fluorophenyl)-4-[(6-methoxypyrazolo[1,5-a]pyridin-5-yl)amino]-5,6,7,8-tetrahydro[1]benzothieno[2,3-d]pyrimidine-7-carboxamide] | 7 nM |
| COc1cn2nccc2cc1Nc1ncnc2sc3c(c12)CC[C@H](C(=O)Nc1ccc2[nH]ccc2c1)C3 [Example 93, (7S)—N-(1H-Indol-5-yl)-4-[(6-methoxypyrazolo[1,5-a]pyridin-5-yl)amino]-5,6,7,8-tetrahydro[1]benzothieno[2,3-d]pyrimidine-7-carboxamide] | 3 nM |
| CCN(C)C(=O)[C@H]1CCc2c(sc3ncnc(Nc4cc5ccnn5cc4OC)c23)C1 [Example 94, (7S)—N-Ethyl-4-[(6-methoxypyrazolo[1,5-a]pyridin-5-yl)amino]-N-methyl-5,6,7,8-tetrahydro[1]benzothieno[2,3-d]pyrimidine-7-carboxamide] | 1 nM |
| COc1cn2nccc2cc1Nc1ncnc2sc3c(c12)CC[C@H](C(=O)N(C)CCC(F)(F)F)C3 [Example 96, (7S)-4-[(6-Methoxypyrazolo[1,5-a]pyridin-5-yl)amino]-N-methyl-N-(3,3,3-trifluoropropyl)-5,6,7,8-tetrahydro[1]benzothieno[2,3-d]pyrimidine-7-carboxamide] | 7 nM |
| CCCCN(C)C(=O)[C@H]1CCc2c(sc3ncnc(Nc4cc5ccnn5cc4OC)c23)C1 [Example 97, (7S)—N-Butyl-4-[(6-methoxypyrazolo[1,5-a]pyridin-5-yl)amino]-N-methyl-5,6,7,8-tetrahydro[1]benzothieno[2,3-d]pyrimidine-7-carboxamide] | 1 nM |
| COc1cn2nccc2cc1Nc1ncnc2sc3c(c12)CC[C@H](C(=O)N(C)CCCN(C)C)C3 [Example 99, (7S)—N-[3-(Dimethylamino)propyl]-4-[(6-methoxypyrazolo[1,5-a]pyridin-5-yl)amino]-N-methyl-5,6,7,8-tetrahydro[1]benzothieno[2,3-d]pyrimidine-7-carboxamide] | 1 nM |
| COc1cn2nccc2cc1Nc1ncnc2sc3c(c12)CC[C@H](C(=O)N(C)CCN(C)C)C3 [Example 101, (7S)—N-[2-(Dimethylamino)ethyl]-4-[(6-methoxypyrazolo[1,5-a]pyridin-5-yl)amino]-N-methyl-5,6,7,8-tetrahydro[1]benzothieno[2,3-d]pyrimidine-7-carboxamide] | 2 nM |
| COc1cn2nccc2cc1Nc1ncnc2sc3c(c12)CC[C@H](C(=O)N(C)C(C)C)C3 [Example 105, (7S)-4-[(6-Methoxypyrazolo[1,5-a]pyridin-5-yl)amino]-N-methyl-N-(propan-2-yl)-5,6,7,8-tetrahydro[1]benzothieno[2,3-d]pyrimidine-7-carboxamide] | 2 nM |
| COc1cn2nccc2cc1Nc1ncnc2sc3c(c12)CC[C@H](C(=O)N1CC[C@H](N(C)C)C1)C3 [Example 107, [(3S)-3-(Dimethylamino)pyrrolidin-1-yl](7S)-4-[(6-methoxypyrazolo[1,5-a]pyridin-5-yl)amino]-5,6,7,8-tetrahydro[1]benzothieno[2,3-d]pyrimidin-7-ylmethanone] | < 1 nM |
| COc1cn2nccc2cc1Nc1ncnc2sc3c(c12)CC[C@H](C(=O)N1C[C@H](O)[C@@H](O)C1)C3 [Example 108, [(3S,4S)-3,4-Dihydroxypyrrolidin-1-yl](7S)-4-[(6-methoxypyrazolo[1,5-a]pyridin-5-yl)amino]-5,6,7,8-tetrahydro[1]benzothieno[2,3-d]pyrimidin-7-ylmethanone] | 1 nM |
| COc1cn2nccc2cc1Nc1ncnc2sc3c(c12)CC[C@H](C(=O)N1CCC(N(C)C)CC1)C3 [Example 109, [4-(Dimethylamino)piperidin-1-yl](7S)-4-[(6-methoxypyrazolo[1,5-a]pyridin-5-yl)amino]-5,6,7,8-tetrahydro[1]benzothieno[2,3-d]pyrimidin-7-ylmethanone] | 1 nM |
| COc1cn2nccc2cc1Nc1ncnc2sc3c(c12)CC[C@H](C(=O)N1CCC(N(C)CCN(C)C)CC1)C3 [Example 110] | < 1 nM |
| COc1cn2nccc2cc1Nc1ncnc2sc3c(c12)CC[C@H](C(=O)N(CCO)CCCN(C)C)C3 [Example 111, (7S)—N-[3-(Dimethylamino)propyl]-N-(2-hydroxyethyl)-4-[(6-methoxypyrazolo[1,5-a]pyridin-5-yl)amino]-5,6,7,8-tetrahydro[1]benzothieno[2,3-d]pyrimidine-7-carboxamide] | 3 nM |
| COc1cn2nccc2cc1Nc1ncnc2sc3c(c12)CC[C@H](C(=O)N1C[C@@H](C)O[C@@H](C)C1)C3 [Example 112, [(2R,6S)-2,6-Dimethylmorpholin-4-yl](7S)-4-[(6-methoxypyrazolo[1,5-a]pyridin-5-yl)amino]-5,6,7,8-tetrahydro[1]benzothieno[2,3-d]pyrimidin-7-ylmethanone] | 2 nM |
| COc1cn2nccc2cc1Nc1ncnc2sc3c(c12)CC[C@H](C(=O)N1CCN(CCN(C)C)CC1)C3 [Example 114, 4-[2-(Dimethylamino)ethyl]piperazin-1-yl(7S)-4-[(6-methoxypyrazolo[1,5-a]pyridin-5-yl)amino]-5,6,7,8-tetrahydro[1]benzothieno[2,3-d]pyrimidin-7-ylmethanone] | < 1 nM |
| CCN(CCN(C)C)C(=O)[C@H]1CCc2c(sc3ncnc(Nc4cc5ccnn5cc4OC)c23)C1 [Example 115, (7S)—N-[2-(Dimethylamino)ethyl]-N-ethyl-4-[(6-methoxypyrazolo[1,5-a]pyridin-5-yl)amino]-5,6,7,8-tetrahydro[1]benzothieno[2,3-d]pyrimidine-7-carboxamide] | 1 nM |
| CCN(CCO)C(=O)[C@H]1CCc2c(sc3ncnc(Nc4cc5ccnn5cc4OC)c23)C1 [Example 117, (7S)—N-Ethyl-N-(2-hydroxyethyl)-4-[(6-methoxypyrazolo[1,5-a]pyridin-5-yl)amino]-5,6,7,8-tetrahydro[1]benzothieno[2,3-d]pyrimidine-7-carboxamide] | 1 nM |
